In assay [1] the test system is HLA-A*02:01_ds 22-71. Nature of the assay: TSA with fatty acids in 20 mM HEPES pH 7.0. The assay is classed as binding, human. As to conditions: 50 mM fatty acid, 20 mM HEPES pH 7.0, protein 0.1 mg/ml. As for the experimental part:
(§1) After refolding the protein was concentrated by ultrafiltration and purified by size exclusion chromatography. Fatty acids were dissolved in or diluted with water and neutralized with NaOH to give stock solution of 0.5 M pH 7.
In order to find optimal storage and handling conditions for peptide free recombinant HLA-A*02:01 preparations, different compounds were screened in a thermal shift assay (TSA). […] The additives indicated in table 3 were added or alternatively water was added as a control. The raw data was exported and the analysis of the melting temperature was performed in Microsoft Excel. Protein stability was monitored over a temperature range from 30° C. to 70° C. […] The temperature at which the maximal increase of fluorescence compared to the previous measurement was observed, is defined as melting point in the respective composition.

Assay [2] deals with HLA-A*02:01_ds 22-71. As to conditions: 0.1 mg/ml protein, 20 mM Tris pH 8.0, 150 mM NaCl; for protein stability (melting point) in thermal shift assay: sodium butyrate 50 mM, GM dipeptide 10 mM, water as control. The protocol:
as §1
(§2) In order to find optimal storage and handling conditions for peptide free recombinant HLA-A*02:01 preparations, different compounds were screened in a thermal shift assay (TSA). Measurements were performed in the Applied Biosystems 7500 real time PCR instrument at a protein concentration of 0.1 mg/ml in a buffer of 20 mM Tris pH 8.0, 150 mM NaCl. The additives indicated in table 3 were added or alternatively water was added as a control. The raw data was exported and the analysis of the melting temperature was performed in Microsoft Excel. Protein stability was monitored over a temperature range from 30° C. to 70° C. […] The temperature at which the maximal increase of fluorescence compared to the previous measurement was observed, is defined as melting point in the respective composition.

For assay [3], the system named is HLA-A*02:01 ds_84-139. Nature of the assay: TSA with fatty acid and/or GM loading dipeptide. The assay is classed as binding, human. As to conditions: fatty acid 50 mM final or GM 10 mM final. As for the experimental part: as §2
(§3) Reference is made to FIGS. 5 to 7.

Assay [4] has as its system HLA-A*02:01_ds_22-71. Nature of the assay: TSA with fatty acid and/or GM loading dipeptide. It is filed as binding, human. Particulars: fatty acid 50 mM final or GM 10 mM final. The protocol: as §2, §3
Assay [5] has as its system HLA-A*0201 ds 22-71. In words: TSA-screen with 40 different buffer conditions (different pH). The assay is classed as binding, human. Particulars: valeric acid 50 mM. The protocol:
In a parallel TSA-screen with 40 different buffer conditions (MES pH between 5.8 to 7.2; BisTris pH between 5.8 to 7.2; MOPS pH between 6.5 to 7.9; HEPES pH 6.8 to 8.2; and Tris pH between 7.6 to 9.0), a clear link between pH conditions and stability of recombinant HLA was detected. In this experiment, a solution of 0.1 mg/ml HLA-A*0201 ds 22-71 in 20 mM HEPES pH 7.0 was supplemented with 0.1 volume of 1 M stock solution of the respective buffer. […] This pH range was also found to be optimal for peptide loaded HLA molecules. In order to test whether HLA is stabilized in different pH conditions by the fatty acids, a TSA-screen with the same 40 different buffer conditions was performed as described above. […] Accordingly, the stabilizing effect of the fatty acid on the HLA molecule was observed under different pH conditions.

Molecules are shown by their SMILES.

On to `CC(C)CCC(=O)O` [4-methyl-valeric acid, 4-methyl-pentanoic acid], for which the “stabilizing effect on the HLA molecule (melting point), branched or unsaturated versus linear saturated fatty acids” value in assay [1] was “showed a stabilizing effect on the HLA molecule”.

Turning to `CSCC[C@H](N)C(=O)O.NCC(=O)O` [glycine-methionine, reference compound], the “protein stability (melting point) in thermal shift assay” value in assay [2] is “marked increase in protein stability”. Further, the “stabilization of the HLA protein, single additive” value (“stabilization of the HLA protein” for short) in assay [3] and in assay [4] was “Stabilization of the HLA proteins was observed” throughout.

As for `CCCC(=O)[O-].[Na+]` [sodium butyrate, Sodium butyrate], the “stabilizing effect compared to the dipeptide glycine-methionine” value in assay [2] (sodium butyrate 50 mM vs GM 10 mM) was “increased stabilizing effect”. Further, the “protein stability (melting point) in thermal shift assay” value in assay [2] is reported as “marked increase in protein stability”. In addition, the “stabilization of the HLA protein” value in assay [3] and in assay [4] was “Stabilization of the HLA proteins was observed” in each case.

On to `CCCCCC(=O)O` [hexanoic acid], for which the “stabilization of the HLA protein” value in assay [3] and in assay [4] was “Stabilization of the HLA proteins was observed” each time.

On to `CCCCC(=O)O` [valeric acid, Pentanoic acid], for which the “stabilization of the HLA protein” value in assay [3] and in assay [4] was “Stabilization of the HLA proteins was observed” throughout. Moreover, the “stabilizing effect compared to tests without the fatty acid” value in assay [5] (40 buffer conditions, MES, BisTris, MOPS, HEPES, Tris, pH 5.8 to 9.0, 100 mM buffer) is recorded as “increased in all pH conditions tested”. The “stabilizing effect in the pH range of 6 to 7.2” value in assay [5] (pH 6 to 7.2) is listed as “particularly increased”.

(Values after patent US20240409607A1, “STABILIZED MHC MOLECULES” (Immatics Biotechnologies GmbH, priority 2021, published 2024).)
